Source: ChEMBL document CHEMBL5608182, “Synthesis and evaluation of neuroactive steroids with novel pharmacophore at C-21 let identify a compound with advantageous PK profile and higher EC50 and Emax as PAM on GABAA receptor” (Eur J Med Chem, 2024)

Columns and labels:
[1] = Metabolic stability in human liver microsomes assessed as compound remaining at 1 uM preincubated for 10 mins followed by NADPH addition by LC-MS analysis; format: ADME, Microsome; details: read-out: Stability
[2] = MRTlast in male Sprague-Dawley rat at 24.4 micromol/kg, IG administered as single dose and measured upto 24 hrs by LC-MS/MS analysis; format: ADME; details: in vivo, po, dose 24.4 µmol/kg
[3] = AUClast in male Sprague-Dawley rat at 6.1 micromol/kg, iv administered as single dose and measured upto 24 hrs by LC-MS/MS analysis; format: ADME, organism-based; details: in vivo, dose 6.1 µmol/kg
[4] = Acid dissociation constant, pKa of the compound; format: physicochemical
Cytochrome P450 2C9 = Cytochrome P450 2C9 (Homo sapiens, UniProt P11712); assay: Inhibition of CYP2C9 (unknown origin); format: ADME
Cytochrome P450 1A2 = target: T1, Cytochrome P450 1A2 (Homo sapiens, UniProt P05177); assay: Inhibition of CYP1A2 (unknown origin); format: ADME
T1 sequence (P05177 whole entry): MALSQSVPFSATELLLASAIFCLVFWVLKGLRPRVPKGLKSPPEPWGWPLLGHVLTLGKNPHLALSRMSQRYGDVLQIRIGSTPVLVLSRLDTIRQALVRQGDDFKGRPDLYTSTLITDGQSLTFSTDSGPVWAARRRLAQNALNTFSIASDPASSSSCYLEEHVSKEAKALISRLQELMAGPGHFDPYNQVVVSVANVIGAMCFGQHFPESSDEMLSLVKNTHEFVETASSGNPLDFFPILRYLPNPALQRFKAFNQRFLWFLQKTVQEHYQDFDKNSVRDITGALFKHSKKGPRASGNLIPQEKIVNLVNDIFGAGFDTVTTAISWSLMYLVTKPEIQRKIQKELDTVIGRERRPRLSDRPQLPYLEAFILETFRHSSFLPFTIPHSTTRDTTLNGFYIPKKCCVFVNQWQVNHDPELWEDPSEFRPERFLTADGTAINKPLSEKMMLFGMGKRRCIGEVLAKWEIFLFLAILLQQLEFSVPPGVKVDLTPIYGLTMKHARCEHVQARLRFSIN

Cytochrome P450 2B6 = target: T2, Cytochrome P450 2B6 (Homo sapiens, UniProt P20813); assay: Inhibition of CYP2B6 (unknown origin); format: ADME
T2 sequence (P20813 whole entry): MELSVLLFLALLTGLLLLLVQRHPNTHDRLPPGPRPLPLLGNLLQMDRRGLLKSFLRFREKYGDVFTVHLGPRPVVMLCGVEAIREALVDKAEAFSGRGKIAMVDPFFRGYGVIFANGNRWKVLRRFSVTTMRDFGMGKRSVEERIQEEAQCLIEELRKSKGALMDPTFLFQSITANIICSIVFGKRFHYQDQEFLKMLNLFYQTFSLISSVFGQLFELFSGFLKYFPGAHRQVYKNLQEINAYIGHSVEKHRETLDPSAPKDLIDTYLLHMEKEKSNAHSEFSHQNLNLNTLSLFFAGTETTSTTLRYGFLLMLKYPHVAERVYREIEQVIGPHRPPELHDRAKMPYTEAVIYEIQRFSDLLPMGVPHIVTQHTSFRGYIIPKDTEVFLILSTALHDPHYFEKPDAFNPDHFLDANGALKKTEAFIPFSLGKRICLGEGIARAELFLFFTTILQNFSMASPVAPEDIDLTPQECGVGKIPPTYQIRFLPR

Cytochrome P450 3A4 = Cytochrome P450 3A4 (Homo sapiens, UniProt P08684); assay: Inhibition of CYP3A4 (unknown origin); format: ADME
[5] = Drug concentration in Sprague-Dawley rat brain at 24.4 micromol/kg, IG measured after 0.5 hrs by LC-MS/MS analysis; format: ADME, tissue-based; details: in vivo, po, dose 24.4 µmol/kg
[6] = target: Gamma-aminobutyric acid receptor subunit alpha-4/beta3/delta (Homo sapiens) (UniProt P28472+P48169+O14764); assay: (§1) Positive allosteric modulation of extrasynaptic alpha4beta3delta GABA-A receptor (unknown origin) transfected in CHO cells assessed as potentiation of GABA-induced peak current amplitude by measuring maximal efficacy at 0.01 to 10 uM at -80 mV holding potential preincubated for 30 secs followed by GABA stimulation for 2 secs by manual patch assay relative to control; format: cell-based; details: filed as positive allosteric modulator, dose 0.01-10 µM, time 32.0 sec
[7] = Half life in male Sprague-Dawley rat at 24.4 micromol/kg, IG administered as single dose and measured upto 24 hrs by LC-MS/MS analysis; format: ADME; details: in vivo, po, dose 24.4 µmol/kg
[8] = target: GABA-A receptor; alpha-1/beta-2/gamma-2 (Homo sapiens) (UniProt P14867+P47870+P18507); assay: as §1, with “synaptic alpha1beta2gamma2” for “extrasynaptic alpha4beta3delta”, “LTK” for “CHO”, “Q-patch” for “manual patch”; format: cell-based; details: filed as positive allosteric modulator, dose 0.01-10 µM, time 32.0 sec
[9] = Initial drug concentration in male Sprague-Dawley rat at 6.1 micromol/kg, iv administered as single dose and measured upto 24 hrs by LC-MS/MS analysis; format: ADME, organism-based; details: in vivo, dose 6.1 µmol/kg
[10] = Drug concentration in Sprague-Dawley rat brain at 24.4 micromol/kg, IG measured after 2 hrs by LC-MS/MS analysis; format: ADME, tissue-based; details: in vivo, po, dose 24.4 µmol/kg
[11] = Bioavailability in male Sprague-Dawley rat at 24.4 micromol/kg, IG administered as single dose and measured upto 24 hrs by LC-MS/MS analysis; format: ADME, organism-based; details: in vivo, po, 24.4 µmol/kg
[12] = Metabolic stability in Sprague-Dawley rat liver microsomes assessed as intrinsic clearance at 1 uM preincubated for 10 mins followed by NADPH addition by LC-MS analysis; format: ADME, Microsome; details: read-out: CLH
[13] = Tmax in male Sprague-Dawley rat at 24.4 micromol/kg, IG administered as single dose and measured upto 24 hrs by LC-MS/MS analysis; format: ADME; details: in vivo, po, dose 24.4 µmol/kg
[14] = Half life in male Sprague-Dawley rat at 6.1 micromol/kg, iv administered as single dose and measured upto 24 hrs by LC-MS/MS analysis; format: ADME, organism-based; details: in vivo, dose 6.1 µmol/kg
[15] = target: Gamma-aminobutyric acid receptor subunit alpha-4/beta3/delta (Homo sapiens, UniProt O14764+P28472+P48169); assay: as §1, with “amplitude” for “amplitude by measuring maximal efficacy at 0.01 to 10 uM”, “assay” for “assay relative to control”; format: cell-based
Sequence of Gamma-aminobutyric acid receptor subunit alpha-4/beta3/delta (P28472 whole entry): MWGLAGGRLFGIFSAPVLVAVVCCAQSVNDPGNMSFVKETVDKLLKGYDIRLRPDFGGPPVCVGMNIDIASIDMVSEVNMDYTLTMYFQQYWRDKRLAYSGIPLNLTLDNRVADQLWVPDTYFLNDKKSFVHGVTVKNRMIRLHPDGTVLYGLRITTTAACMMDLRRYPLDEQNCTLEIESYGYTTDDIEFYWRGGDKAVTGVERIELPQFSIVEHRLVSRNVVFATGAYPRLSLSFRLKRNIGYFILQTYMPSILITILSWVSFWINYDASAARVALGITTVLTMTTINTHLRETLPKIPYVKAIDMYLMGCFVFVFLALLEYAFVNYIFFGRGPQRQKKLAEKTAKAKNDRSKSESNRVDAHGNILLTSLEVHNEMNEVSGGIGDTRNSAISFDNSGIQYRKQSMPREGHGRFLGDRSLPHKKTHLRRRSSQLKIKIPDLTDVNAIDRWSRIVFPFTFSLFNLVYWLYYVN
Sequence of Gamma-aminobutyric acid receptor subunit alpha-4/beta3/delta (P48169 whole entry): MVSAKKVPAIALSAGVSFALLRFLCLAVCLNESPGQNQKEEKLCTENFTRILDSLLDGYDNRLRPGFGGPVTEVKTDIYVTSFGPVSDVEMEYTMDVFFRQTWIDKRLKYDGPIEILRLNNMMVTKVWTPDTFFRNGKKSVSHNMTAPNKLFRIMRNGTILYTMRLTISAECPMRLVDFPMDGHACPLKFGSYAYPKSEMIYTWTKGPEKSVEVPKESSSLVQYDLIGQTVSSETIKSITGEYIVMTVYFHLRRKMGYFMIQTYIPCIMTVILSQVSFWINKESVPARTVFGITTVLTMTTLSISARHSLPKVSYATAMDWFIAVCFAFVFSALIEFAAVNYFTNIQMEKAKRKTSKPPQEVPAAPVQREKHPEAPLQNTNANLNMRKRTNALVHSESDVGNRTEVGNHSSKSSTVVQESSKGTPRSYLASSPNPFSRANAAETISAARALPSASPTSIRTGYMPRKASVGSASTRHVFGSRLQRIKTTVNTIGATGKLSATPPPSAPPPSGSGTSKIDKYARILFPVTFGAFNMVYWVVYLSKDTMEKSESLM
Sequence of Gamma-aminobutyric acid receptor subunit alpha-4/beta3/delta (O14764 whole entry): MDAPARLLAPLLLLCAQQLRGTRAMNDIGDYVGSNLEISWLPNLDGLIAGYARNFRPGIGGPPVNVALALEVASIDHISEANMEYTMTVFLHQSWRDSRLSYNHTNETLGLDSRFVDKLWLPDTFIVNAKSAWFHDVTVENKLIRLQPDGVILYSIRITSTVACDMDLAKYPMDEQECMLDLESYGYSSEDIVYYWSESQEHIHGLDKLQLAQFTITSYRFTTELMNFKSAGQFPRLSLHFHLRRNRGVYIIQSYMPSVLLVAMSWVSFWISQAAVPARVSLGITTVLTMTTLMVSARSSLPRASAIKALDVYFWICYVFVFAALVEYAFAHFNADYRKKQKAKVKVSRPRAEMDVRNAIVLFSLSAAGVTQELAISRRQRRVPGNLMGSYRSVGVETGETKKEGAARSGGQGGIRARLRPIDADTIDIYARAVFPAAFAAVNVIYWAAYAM

Sequence of Cytochrome P450 3A4 (P08684 whole entry): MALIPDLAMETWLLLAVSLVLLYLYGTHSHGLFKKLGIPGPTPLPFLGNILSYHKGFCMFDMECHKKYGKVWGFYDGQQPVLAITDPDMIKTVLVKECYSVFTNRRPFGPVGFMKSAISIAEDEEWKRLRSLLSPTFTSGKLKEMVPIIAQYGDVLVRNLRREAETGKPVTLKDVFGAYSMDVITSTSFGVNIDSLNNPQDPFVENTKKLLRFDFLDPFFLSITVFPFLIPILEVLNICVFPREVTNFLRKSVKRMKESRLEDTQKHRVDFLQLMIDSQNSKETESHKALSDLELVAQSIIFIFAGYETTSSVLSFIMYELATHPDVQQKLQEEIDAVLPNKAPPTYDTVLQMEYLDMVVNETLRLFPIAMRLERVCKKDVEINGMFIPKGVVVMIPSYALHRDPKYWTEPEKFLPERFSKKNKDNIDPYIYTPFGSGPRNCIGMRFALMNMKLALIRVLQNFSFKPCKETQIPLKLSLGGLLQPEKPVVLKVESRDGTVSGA
Sequence of Cytochrome P450 2C9 (P11712 whole entry): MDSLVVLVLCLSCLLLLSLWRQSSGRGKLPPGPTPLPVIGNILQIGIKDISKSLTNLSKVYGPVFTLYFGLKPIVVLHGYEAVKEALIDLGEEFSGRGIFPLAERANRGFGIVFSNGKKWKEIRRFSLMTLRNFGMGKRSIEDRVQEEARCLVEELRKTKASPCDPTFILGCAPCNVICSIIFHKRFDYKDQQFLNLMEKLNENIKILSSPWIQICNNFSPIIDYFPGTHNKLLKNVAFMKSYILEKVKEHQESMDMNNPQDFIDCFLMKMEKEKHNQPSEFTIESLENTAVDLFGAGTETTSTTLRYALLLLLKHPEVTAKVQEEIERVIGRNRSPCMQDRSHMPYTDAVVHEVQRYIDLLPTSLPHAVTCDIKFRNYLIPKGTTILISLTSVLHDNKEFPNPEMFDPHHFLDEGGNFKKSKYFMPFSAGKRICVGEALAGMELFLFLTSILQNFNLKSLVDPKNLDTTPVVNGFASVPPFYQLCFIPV

| SMILES | remaining at 1 µM [1] | MRT last at 24 h [2] | AUC(0-t) at 24 h [3] | pKa [4] | IC50 (Cytochrome P450 2C9) | IC50 (Cytochrome P450 1A2) | IC50 (Cytochrome P450 2B6) | IC50 (Cytochrome P450 3A4) | Ct [5] | Emax [6] | half-life [7] | Emax [8] | C0 at 24 h [9] | Ct [10] | bioavailability [11] | CLint scaled at 1 µM [12] | Tmax [13] | half-life [14] | EC50 [15] |
| --- | --- | --- | --- | --- | --- | --- | --- | --- | --- | --- | --- | --- | --- | --- | --- | --- | --- | --- | --- |
| C[C@@]1(O)CC[C@H]2[C@H](CC[C@@H]3[C@@H]2CC[C@]2(C)[C@@H](C(=O)Cn4cc(C#N)cn4)CC[C@@H]32)C1 [ZURANOLONE] | 72% | 4.46 h | 5.21 µM·h | > 12 | > 30 µM | > 30 µM | > 30 µM | > 30 µM | 3103 nmol/kg | 1040% | 3.8 h | 980% | 3440 nM | 2220 nmol/kg | 57.7% | 51.8 mL/min/kg | 1.17 h | 2.45 h | 0.135 µM |
| C[C@@]1(O)CC[C@H]2[C@H](CC[C@@H]3[C@@H]2CC[C@]2(C)[C@@H](C(=O)Cn4cnn(-c5cc(F)nc(F)c5)c4=O)CC[C@@H]32)C1 | 98% | 7.74 h | 6.03 µM·h | > 12 | > 30 µM | > 30 µM | > 30 µM | > 30 µM | 2320 nmol/kg | 1070% | 6.58 h | 675% | 1870 nM | 3404 nmol/kg | 99.6% | 23 mL/min/kg | 2.01 h | 5.2 h | 0.075 µM |
